Here are results for one compound from ChEMBL document CHEMBL5316318, “Structural Modification and Pharmacological Evaluation of Substituted Quinoline-5,8-diones as Potent NSD2 Inhibitors” (J Med Chem, 2023).

Data set [1] can be described thus: Toxicity in SCID mouse xenografted with human KMS-11 cells assessed as adverse effects at 75 to 150 mg/kg, po administered daily for 21 days and measured every 3 days. It is filed as organism-based. The note with it: in vivo, 504 h, dose 75-150 mg/kg, time 21 day. (In general: A xenograft is tissue or cells of one species grown in another, often human tumour cells in immunodeficient mice.)

Data set [2] has as its system KMS-11. The data set can be described thus: Induction of apoptosis in human KMS-11 cells assessed as upregulation of BIM protein expression at 0.2 to 0.8 uM by Western blot analysis. It counts as functional, cell-based. Particulars: dose 0.2-0.8 µM. For orientation: In western blotting, separated proteins are transferred to a membrane and probed.
For data set [3], the system named is MOLT-4. The data set can be described thus: Antiproliferative activity against human MOLT-4 cells harboring wild type NSD2 assessed as inhibition of cell growth incubated for 6 days by CCK-8 assay. It counts as functional, cell-based. The note with it: MOLT-4, 144 h.
The subject of data set [4] is KMS-11. Description: Induction of apoptosis in human KMS-11 cells assessed as late apoptotic cells at 0.2 uM incubated for 72 hrs by Annexin V-FITC/PI staining based flow cytometry analysis (reference value: 6.47%). It is filed as functional. For orientation: In flow cytometry, cells or beads pass a laser one at a time.
In data set [5] the test system is KMS-11. Description: Induction of apoptosis in human KMS-11 cells assessed as early apoptotic cells at 0.8 uM incubated for 72 hrs by Annexin V-FITC/PI staining based flow cytometry analysis (reference value: 3.96%). It counts as functional.
Data set [6] can be described thus: Toxicity in SCID mouse xenografted with human KMS-11 cells assessed as body weight loss at 75 to 150 mg/kg, po administered daily for 21 days and measured every 3 days. It counts as organism-based. The note with it: in vivo, 504 h, dose 75-150 mg/kg, time 21 day.
The test system of data set [7] is KMS-11. The data set can be described thus: Induction of apoptosis in human KMS-11 cells assessed as upregulation of BID protein expression at 0.2 to 0.8 uM by Western blot analysis. It counts as functional, cell-based. Particulars: dose 0.2-0.8 µM.
A short description of data set [8]: Apparent permeability coefficient, Papp in MDCK cells. It counts as ADME, cell-based, Canis lupus familiaris. The note with it: dog.
Data set [9] concerns the target Histone-lysine N-methyltransferase NSD2 (Homo sapiens) (UniProt O96028). Description: Binding affinity to human recombinant NSD2 (941 to 1240 residues) at 200 uM by saturation transfer difference based NMR analysis.

Calls of active or inactive are those of the source. No cut-off for these calls is given here.

Histone-lysine N-methyltransferase NSD2 (Homo sapiens), sequence (O96028 whole entry, the tested form may be a part): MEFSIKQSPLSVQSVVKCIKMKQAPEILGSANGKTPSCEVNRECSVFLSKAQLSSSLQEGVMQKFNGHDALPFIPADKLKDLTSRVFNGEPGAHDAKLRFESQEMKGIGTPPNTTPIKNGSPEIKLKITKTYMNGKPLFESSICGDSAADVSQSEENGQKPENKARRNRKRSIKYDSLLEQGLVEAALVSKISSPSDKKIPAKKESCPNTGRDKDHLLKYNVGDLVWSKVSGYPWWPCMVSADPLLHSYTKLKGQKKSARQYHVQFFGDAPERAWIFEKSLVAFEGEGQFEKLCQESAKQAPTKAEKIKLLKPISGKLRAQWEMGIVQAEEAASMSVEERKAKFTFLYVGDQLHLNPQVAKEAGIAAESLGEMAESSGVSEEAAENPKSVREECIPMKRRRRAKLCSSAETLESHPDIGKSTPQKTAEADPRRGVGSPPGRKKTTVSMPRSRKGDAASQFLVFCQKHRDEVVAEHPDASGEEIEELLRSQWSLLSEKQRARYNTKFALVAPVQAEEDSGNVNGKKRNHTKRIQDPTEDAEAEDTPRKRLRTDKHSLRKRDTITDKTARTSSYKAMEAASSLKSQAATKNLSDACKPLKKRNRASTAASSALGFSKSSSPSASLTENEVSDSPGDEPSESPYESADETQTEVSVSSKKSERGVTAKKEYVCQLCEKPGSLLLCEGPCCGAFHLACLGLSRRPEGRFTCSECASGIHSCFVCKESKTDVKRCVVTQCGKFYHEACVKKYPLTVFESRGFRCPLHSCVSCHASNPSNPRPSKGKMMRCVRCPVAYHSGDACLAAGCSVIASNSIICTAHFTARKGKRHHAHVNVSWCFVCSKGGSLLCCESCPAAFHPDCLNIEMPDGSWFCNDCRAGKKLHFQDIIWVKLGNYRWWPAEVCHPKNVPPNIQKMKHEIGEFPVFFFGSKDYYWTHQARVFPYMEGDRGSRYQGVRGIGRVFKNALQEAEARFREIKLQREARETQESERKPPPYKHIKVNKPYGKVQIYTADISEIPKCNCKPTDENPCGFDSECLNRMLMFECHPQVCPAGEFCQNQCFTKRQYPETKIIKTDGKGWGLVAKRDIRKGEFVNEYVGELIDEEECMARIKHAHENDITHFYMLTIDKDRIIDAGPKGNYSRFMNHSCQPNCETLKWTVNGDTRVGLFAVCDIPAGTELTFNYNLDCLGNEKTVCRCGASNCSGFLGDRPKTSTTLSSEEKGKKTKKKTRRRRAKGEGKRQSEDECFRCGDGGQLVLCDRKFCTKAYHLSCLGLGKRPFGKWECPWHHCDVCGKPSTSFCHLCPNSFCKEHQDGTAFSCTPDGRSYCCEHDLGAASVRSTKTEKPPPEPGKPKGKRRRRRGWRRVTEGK

With `CC#CC(=O)NC12CC(NC3=C(Cl)C(=O)c4ncccc4C3=O)(C1)C2`, the Activity result in data set [1] was “Non-Toxic”; in [4] it was 7.79%; in data set [5], 19.3%; in data set [6], “Non-Toxic”. The result in data set [2], in [7] and in data set [9] was Active. Moreover, the IC50 in data set [3] came to 1.23 µM. The Papp in data set [8] is 450 nm/s.

The term IC50 denotes the concentration at which inhibition is half-maximal. What is called Papp is the rate of passage across a membrane or cell layer, normalised by area and donor concentration.
